Data as given in US4029801A, “Pharmaceutical compositions and methods of treating hypertension” (priority 1970, dated 1977).
Where two headings read alike, the source gives them in different places.

Tests used:
[1] = Anti-inflammatory activity; format: in vivo; conditions: result in words
[2] = system: blood pressure and heart rate; assay: Method 1 (rat): hypotensive activity in anaesthetised rats, i.v.; conditions: for minimal effective dose: Rattus norvegicus, iv; for Significant bradycardia (dose; decrease in heart rate of more than 30%): anaesthetised rat, i.v., cumulative dose
Description: Rats were anaesthetised with pentobarbitone sodium (60 mg/kg) and the jugular vein, trachea and carotid artery were cannulated. […] A decrease in heart rate of more than 30% from control values was considered to be significant bradycardia.

[3] = system: blood pressure and heart rate; assay: Method 1 (cat): blood pressure, heart rate and left ventricular pressure in anaesthetised cats, i.v.; format: in vivo; conditions: 3.2 mg/kg
Description: (§1) Cats were anaesthetised with pentobarbitone sodium (30 mg/kg) and the cephalic vein, femoral and carotid arteries and trachea were cannulated. The carotid cannula was introduced into the left ventricle and the femoral cannula into the aorta. Blood pressure and heart rate were recorded from the aortic cannula and left ventricular pressure from the carotid cannula. The test compunds were administered intravenously (0.1-25.6 mg/kg).

[4] = system: systolic pressure; assay: Method 2: anti-hypertensive activity in renal hypertensive rats; format: in vivo, rat
Description: (§2) Method 2 (hypertensive rats)
(§3) Male or female rats are rendered hypertensive by applying a figure of 8 ligature around one kidney and contralateral nephrectomy. Blood pressure stabilises at a hypertensive level after 6 weeks. Systolic pressure is measured indirectly using a Decker Caudal Plethysmograph A control group of rats is run with each group treated with drug. Each group usually consists of six rats. Drugs are usually administered by the IP or oral routes. Pressures are read prior to drug administration and at two and 24 hours thereafter.
Falls in systolic blood pressure 2 hr after an oral dose of 40 mg/kg: >50
mm, +++; 50-30 mm, ++; 30-15 mm, +; <15 mm, ±. g Oral dose of 75 mg/kg
h Oral dose of 10 mg/kg. i Oral dose of 2.5 mg/kg.

[5] = system: α-adrenoceptor; assay: α-Adrenoceptor antagonism on the guinea pig aortic strip; conditions: for α-blockade pA2: Table 4; for pA2 (α-adrenoceptor antagonism): guinea pig aortic strip; for α-adrenoceptor antagonism: result in words
From the text: Carried out on the guinea pig aortic strip [Furchgott and Bhadrakom (1953) J. Pharmac. exp. Ther. 108, 129-143] by the method of Alps et al [Br. J. Pharmac. 1972 44, 52-62].

[6] = Depressant activity; format: in vivo; conditions: result in words
[7] = target: T1, histamine (Cavia porcellus, UniProt P31389); assay: Antihistamine activity by the method of Alps et al.; conditions: for antihistamine activity: result in words
T1 construct: from tissue

[8] = system: blood pressure; assay: Tests for action on the cardiovascular system: hypotensive activity (activity in method 1, rats or cats, or method 2), reported in words; format: in vivo, rat, cat; conditions: standard test procedure, result in words
Description: Tests for action on the cardiovascular system were conducted according to one of the following procedures:
as §1, §2, §3

[9] = Antiarrhythmic activity; conditions: result in words
[10] = Anti-convulsant activity; format: in vivo; conditions: result in words
[11] = system: tremorine; assay: Anti-tremorine activity; format: in vivo; conditions: result in words
[12] = system: oxotremorine; assay: Antioxotremorine activity; format: in vivo; conditions: result in words
[13] = 0.25 h, read-out: Hypotensive Activity
[14] = read-out: Significant hypotension (dose; fall of 30 mm mercury or more in diastolic pressure)
[15] = pA2 (antihistamine activity), Table 2
[16] = Table 4, read-out: Antihistamine pA2 (converted)

T1 sequence (P31389 whole entry): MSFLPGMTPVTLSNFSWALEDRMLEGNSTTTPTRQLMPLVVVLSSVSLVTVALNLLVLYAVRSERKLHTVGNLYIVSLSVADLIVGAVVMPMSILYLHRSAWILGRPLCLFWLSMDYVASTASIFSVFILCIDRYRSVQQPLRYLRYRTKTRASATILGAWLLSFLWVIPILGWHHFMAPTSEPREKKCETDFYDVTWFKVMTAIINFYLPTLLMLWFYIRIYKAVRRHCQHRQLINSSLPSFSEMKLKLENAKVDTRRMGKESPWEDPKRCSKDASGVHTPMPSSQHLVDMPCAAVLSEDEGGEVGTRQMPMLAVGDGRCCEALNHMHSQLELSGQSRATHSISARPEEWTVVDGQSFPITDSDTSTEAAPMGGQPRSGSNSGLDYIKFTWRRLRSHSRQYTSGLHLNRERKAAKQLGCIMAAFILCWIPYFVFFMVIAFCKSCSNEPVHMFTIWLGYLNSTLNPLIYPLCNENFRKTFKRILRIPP

Structure (SMILES)	antihistamine activity [7]	minimal effective dose [2, 13] [mg/kg]	α-blockade pA2 [5]	depressant activity [6]	hypotensive activity [8]	α-adrenoceptor antagonism [5]	further results
O=C(NC1CCN(CC(O)c2ccc(Cl)c(Cl)c2)CC1)c1ccccc1 (stereo not shown) [Example 36, 1-[2-(3,4-Dichlorophenyl)-2-hydroxyethyl]-4-benzamidopiperidine]		< 30			hypotensive		anti-convulsant activity [10]: anti-convulsant activities
CC(=O)Nc1ccc(CCN2CCC(NC(=O)c3ccccc3)CC2)cc1 [Example 24, 1-[2-(p-Acetamidophenyl)ethyl]-4-benzamidopiperidine]		6.4 to 12.8		depressant	hypotensive activity		anti-tremorine activity [11]: anti-tremorine activities
O=C(NC1CCN(CCc2c(Cl)cccc2Cl)CC1)c1ccccc1 [Example 38, 1-[2-(2,6-Dichlorophenyl)ethyl]-4-benzamidopiperidine]		< 30		depressant activities	hypotensive activity		anti-tremorine activity [11]: anti-tremorine
O=C(NC1CCN(CCc2ccc(Cl)cc2)CC1)c1ccccc1 [Example 48, 4-Benzamido-1-[2-(p-chlorophenyl)ethyl]piperidine]		6.4 to 12.8			hypotensive activity		anti-convulsant activity [10]: anti-convulsant activity
O=C(NC1CCN(CC2COc3ccccc3O2)CC1)c1ccccc1 (stereo not shown) [Example 102, 2-(4'-Benzamidopiperid-1-yl)methylbenzo-1,4-dioxan]					marked hypotensive activity		anti-inflammatory activity [1]: anti-inflammatory activity
O=C(CN1CCC(NC(=O)c2ccccc2)CC1)c1ccccc1 [Example 10, 1-Phenacyl-4-benzamidopiperidine]		6.4 to 12.8	5.8	depressant activity	hypotensive		
O=C(NC1CCN(CC(O)COc2cccc3ccccc23)CC1)c1ccccc1 (stereo not shown) [Example 21, 1-[3-(1-Naphthoxy)-2-hydroxyprop-1-yl]-4-benzamidopiperidine]		6.4 to 12.8		some depressant activity	hypotensive activity		
O=C(NC1CCN(CCCC(O)c2ccc(F)cc2)CC1)c1ccccc1 (stereo not shown) [Example 54, 1-[4-(p-Fluorophenyl)-4-hydroxybutyl]-4-benzamidopiperidine]	potent antihistamine activity	6.4 to 12.8			hypotensive activity		minimal effective dose [2, 14]: 6.4 to 12.8 mg/kg; Significant bradycardia (dose; decrease in heart rate of more than 30%) [2]: 6.4 to 12.8 mg/kg; Pressure reduced to ([4]; hypertensive rat, 10 mg/kg, from 209 mmHg): 164 mmHg; toxicity ([4]; hypertensive rat, 40 m.p.k.): Toxic; pA2 (α-adrenoceptor antagonism) [5]: 6.6; Kb [7, 15]: 316 nM
O=C(NC1CCN(CCc2ccc([N+](=O)[O-])cc2)CC1)c1ccccc1 [Example 22, 1-[2-(p-Nitrophenyl)ethyl]-4-benzamidopiperidine]		25.6		depressant	hypotensive activity		anti-tremorine activity [11]: anti-tremorine activities
O=C(NC1CCN(Cc2ccc3c(c2)OCO3)CC1)c1ccccc1 [Example 47, 4-Benzamido-1-(3,4-methylenedioxybenzyl)piperidine]		25.6			hypotensive activity		anti-inflammatory activity [1]: anti-inflammatory activity

The next lines start with results.

antihistamine activity [7]	Structure (SMILES)	minimal effective dose [2, 13] [mg/kg]	α-blockade pA2 [5]	depressant activity [6]	hypotensive activity [8]	α-adrenoceptor antagonism [5]	further results
antihistamine	O=C(CCCN1CCC(NC(=O)c2ccccc2)CC1)c1ccc(F)cc1 [Example 19, 1-[4-(4-Fluorophenyl)-4-oxobutyl]-4-benzamidopiperidine]	0.8	7.5	depressant	marked hypotensive activity		anti-inflammatory activity [1]: antiinflammatory activity; minimal effective dose [2, 14]: 0.8 to 1.6 mg/kg; Significant bradycardia (dose; decrease in heart rate of more than 30%) [2]: 1.6 mg/kg; Significant lowering of blood pressure [3]: 38 mmHg; cardiac effort index [3]: lowered; cardiac output [3]: decreased; heart rate lowered [3]: 28.9%; myocardial contractile force decreased [3]: 25.7%; Pressure reduced to ([4]; hypertensive rat, 10 mg/kg p.o., from 188 mmHg): 138 mmHg; pA2 (α-adrenoceptor antagonism) [5]: 7.4; Kb [7, 15]: 2.51 nM
antihistamine	O=C(CCCN1CCC(NC(=O)c2ccccc2)CC1)c1ccccc1 [Example 43, 4-Benzamido-1-(4-phenyl-4-oxobutyl)piperidine]	0.8			marked hypotensive activity	α-adrenoceptor antagonist	minimal effective dose [2, 14]: 0.8 to 1.6 mg/kg; Significant bradycardia (dose; decrease in heart rate of more than 30%) [2]: 0.8 to 1.6 mg/kg; Significant lowering of blood pressure [3]: 52 mmHg; cardiac effort index [3]: lowered; cardiac output [3]: lowered; heart rate lowered [3]: 35%; myocardial contractile force decreased [3]: 33%; antiarrhythmic activity [9]: antiarrythmic activities; Anti-hypertensive Activity ([4]; Table 3, fall in systolic blood pressure 2 hr after oral dose of 40 mg/kg): + ++; Pressure reduced to ([4]; hypertensive rat, 40 mg/kg p.o., from 174 mmHg): 122 mmHg; pA2 (α-adrenoceptor antagonism) [5]: 7.7; Kb [7, 16]: 0.251 nM; Kb [7, 15]: 0.316 nM
anti-histamine	O=C(NC1CCN(CCCc2ccccc2)CC1)c1ccccc1 [Example 39, 1-[3-Phenylpropyl]-4-benzamidopiperidine]	6.4 to 12.8			good hypotensive activity	α-adrenoceptor antagonism	anti-tremorine activity [11]: anti-tremorine activities; minimal effective dose [2, 14]: 0.8 to 6.4 mg/kg; Significant bradycardia (dose; decrease in heart rate of more than 30%) [2]: 25.6 mg/kg; pA2 (α-adrenoceptor antagonism) [5]: 7.1; Kb [7, 16]: 2.51 nM; Kb [7, 15]: 3.16 nM
antihistamine	O=C(NC1CCN(CCc2ccc(Cl)c(Cl)c2)CC1)c1ccccc1 [Example 37, 1-[2-(3,4-Dichlorophenyl)ethyl]-4-benzamidopiperidine]	1.6 to 3.2	7.35		good hypotensive activity	α-adrenoceptor antagonism	anti-tremorine activity [11]: anti-tremorine activities; Kb [7, 16]: 3.98 nM
anti-histamine	O=C(CCCN1CCC(NC(=O)c2ccccc2)CC1)c1ccc(Cl)cc1 [Example 51, 4-Benzamido-1-[4-(p-chlorophenyl)-4-oxobutyl]piperidine]	6.4 to 12.8	8.4		hypotensive activity	highly potent α-adrenoceptor antagonist activity	anti-inflammatory activity [1]: anti-inflammatory activity; Kb [7, 16]: 20 nM
antihistamine	O=C(NC1CCN(CC(O)c2ccccc2)CC1)c1ccccc1 (stereo not shown) [Example 20, 1-(2-Hydroxy-2-phenylethyl)-4-benzamidopiperidine]	6.4 to 12.8	6.6		hypotensive activity		antioxotremorine activity [12]: antioxotremorine activity
antihistamine	O=C(NC1CCN(CCc2ccc3ccccc3c2)CC1)c1ccccc1 [Example 13, 1-[2-(2-Naphthyl)ethyl]-4-benzamidopiperidine]	1.6 to 3.2	7.4		hypotensive activity	α-adrenoceptor antagonism	antiarrhythmic activity [9]: antiarrythmic activities; Kb [7, 16]: 25.1 nM
antihistamine	O=C(NC1CCN(CCc2ccc(O)c(O)c2)CC1)c1ccccc1 [Example 9, 1-[2(3,4-Dihydroxyphenyl)ethyl]-4-benzamidopiperidine]	< 30		depressant activity			
antihistamine	O=C(CCCN1CCC(NC(=O)c2ccccc2)CC1)c1ccc(F)cc1 [Example 42, 4-benzamido-1-[4-(p-fluorophenyl)-4-oxobutyl]-piperidine]				marked hypotensive activity	α-adrenoceptor antagonist	anti-inflammatory activity [1]: anti-inflammatory activity
antihistamine	O=C(NC1CCN(CCc2ccccn2)CC1)c1ccccc1 [Example 94, 1-[2-(2-Pyridyl)ethyl]-4-benzamidopiperidine]			depressant activities	marked hypotensive activity		
